Series [1] concerns rat neutrophils. Conditions: rat neutrophils stimulated with fMLP; concentration of 3 mg/mL; cited from earlier work.
In series [2] the test system is rat peritoneal mast cells. As to the kind of experiment: Mast cell degranulation stimulated with compound 48/80 (release of β-glucuronidase and histamine). It is filed as cell-based. Conditions: for IC50: Mast cell, compound 48/80 (10 μg/mL); for % of inhibition of Histamine release at the highest concentration / % of inhibition of β-Glucuronidase release at the highest concentration: compound 48/80, at the highest concentration (bound given in the source). The method, then: Heparinized Tyrode's solution was injected into the peritoneal cavity of exsanguinated rat (Sprague-Dawley, 250-300 g, 10-12 weeks old). […] Cell pellets were washed and suspended in Tyrode's solution with 0.1% BSA to 1×10^6 cells/mL. Cell suspension was then preincubated at 37° C. with DMSO or a tested compound for 5 min. The final volume of DMSO in the reaction mixture was≦0.5%. […] After treatment of the cell suspension with Triton X-100, the total content of β-glucuronidase and histamine was measured, and the percentage release was calculated. In the experiment, Mepacrine was used as a positive control.

Series [3] concerns rat neutrophils. As to the kind of experiment: Neutrophil degranulation stimulated with fMLP/CB (release of β-glucuronidase and lysozyme). It is filed as cell-based. Conditions: rat neutrophils; for IC50: Neutrophil, fMLP (1 μM)/CB (5 μg/mL). The method, then: Blood was withdrawn from rat (Sprague-Dawley, 250-300 g, 10-12 weeks old) and mixed with EDTA. […] Cell suspension was preincubated at 37° C. with DMSO or drugs for 10 min, and then challenged with fMLP (1 μM)/CB (5 μg/mL). The final volume of DMSO in the reaction mixture was≦0.5%. […] After treatment of the cell suspension with Triton X-100, the total content of lysozyme and β-glucuronidase was measured and the percentage release was calculated. In the experiment, Trifluoperazine was used as a positive control.

In series [4] the test system is rat neutrophils. As to the kind of experiment: Superoxide anion generation in neutrophils stimulated with fMLP/CB or PMA (cytochrome c reduction). Conditions: Neutrophil, rat neutrophils; for inhibition: at the highest concentration (bound given in the source). It is filed as cell-based. The procedure: Superoxide anion generation was measured in terms of superoxide dismutase-inhibitable cytochrome c reduction (M. Market et al. (1984), Methods Enzymol., 105, 358). Neutrophil suspension was preincubated with DMSO or a tested compound for 3 min, and then superoxide dismutase or Hank's balanced salt solution (HBSS) was added into the blank and test wells, respectively. The final volume of DMSO in the reaction mixture was≦0.5%. After addition of cytochrome c, reaction was initiated by challenge with formyl-Met-Leu-Phe (fMLP) (0.3 μM)/cytochalasin B (CB) (5 μg/mL) or phorbol myristate acetate (PMA) (3 nM). Thirty minutes later, the reaction was terminated by centrifugation and the absorbance changes of supernatant were monitored at 550 nm in a microplate reader. In the experiment, Trifluoperazine was used as a positive control

A further series concerns RAW 264.7 cells. Briefly: NO production (nitrite accumulation, Griess reaction) in LPS-stimulated macrophage-like cells. It is filed as cell-based, mouse. Conditions: for % of inhibition of NO2− accumulation at the highest concentration, RAW 264.7 cells: LPS, at the highest concentration (bound given in the source); for IC50: Mus musculus, RAW264.7, LPS (1 μg/mL), 24 hrs, read-out: IC50, accumulation of NO2− in culture media, RAW 264.7 cells. The procedure: RAW 264.7 mouse macrophage-like cell line (American Type Culture Collection (ATCC), PO Box 1549, Manassas, Va. 20108 USA) was plated in 96 well tissue-culture plates in Dulbecco's Modified Eagle Medium (DMEM) supplemented with 10% fetal calf serum (FCS), 100 units/ml of penicillin and streptomycin at 2×10^5 cells/200 μL per well. Cells were allowed to adhere overnight. The cells were treated with DMSO or a tested compound at 37° C. for 1 hr. followed by stimulation with 1 μg/mL of LPS (Escherichia coli, serotype 0111:B4) for 24 hrs. Thereafter, the medium in each well was collected and stored at −70° C. until use. The final volume of DMSO in the reaction mixture was≦0.5%.
(§1) The production of NO in cell medium was determined by measuring the content of nitrite based on the Griess reaction (L. Mingghetti et at (1997), Glia, 19, 152-160). Briefly, 40 μL of 5 mM sulfanilamide, 10 μL of 2 M HCl, and 20 μL of 40 mM naphthylethylenediamine were added into 150 μL culture medium in sequence. After 10 min of incubation at room temperature, absorbance was measured at 550 nm in a microplate reader. A standard nitrite curve was generated in the same fashion, using NaNO2.

Another series has as its system N9 cells. Briefly: NO production (nitrite accumulation, Griess reaction) in LPS/IFN-γ-stimulated microglial cells. The conditions noted are these: for % of inhibition of NO2− accumulation at the highest concentration, N9 cells: LPS/IFN-γ, at the highest concentration (bound given in the source); for IC50: Mus musculus, N9, LPS (10 ng/mL)/IFN-γ (10 unit/mL), 24 hrs, read-out: IC50, accumulation of NO2− in culture media, N9 cells. It is filed as cell-based, murine. The method, then:
Cells of murine microglial cell line N9 (kindly provided by Dr. P. Ricciardi-Castagnoli, CNR Cellular and Molecular Pharmacology Center, Italy) (S. B. Corradin et al. (1993), Glia, 7, 255-262) were suspended in Iscove's Modified Dulbecco's medium containing 5% heat-inactivated FCS and antibiotics and then plated into 96-well tissue-culture plates at 8×10^4 cells/200 μL per well. The cells were treated with DMSO or a tested compound at 37° C. for 1 hr, followed by stimulation with LPS (10 ng/mL)/IFN-γ (10 unit/mL) for 24 hrs. Thereafter, the medium in each well was collected and stored at −70° C. until use. The final volume of DMSO in the reaction mixture was<0.5%
as §1
For orientation: Nitrite, measured by Griess reagent, commonly stands in for NO production.

[5] abbreviates: read-out: IG50, release of Histamine.
[6] abbreviates: read-out: IG50, release of β-Glucuronidase.
The mark [7] stands for this setting: read-out: IC50, release of Lysozyme.
[8] abbreviates: read-out: IC50, release of β-Glucuronidase.
Where [9] appears, read: PMA (3 nM), read-out: IC50, superoxide anion generation, PMA.
Where [10] appears, read: fMLP (0.3 μM)/CB (5 μg/mL), read-out: IC50, superoxide anion generation, fMLP/CB.
The mark [11] stands for this setting: fMLP/CB, at the highest concentration (bound given in the source).

Structures are written as SMILES. Read-outs that look alike come from different tables or passages of the source.

For `CC(C)=CCc1cc(C(=O)/C=C/c2ccc(O)c(O)c2)c(O)cc1O` [Brousschalcone A], in the series on rat neutrophils [1], the “% inhibition of release of lysozyme” value is 68.0±13.4% and the “% inhibition of release of β-glucuronidase” value was 51.1±12.6%.

What is called inhibition is the share of the control response that was lost under treatment. The low end stands for a weak effect, the high end for a strong effect. As a reminder, the melting point is the temperature of the solid-liquid transition. `CCCOc1ccc(O)c(C(=O)/C=C/c2ccc(Cl)c(Cl)c2)c1` [Compound 6, 3,4-Dichloro-2′-hydroxy-5′-propoxy-chalcone] gave a melting point of 97 to 99 °C. Moreover, the IC50 in series [2] (setting [5]) was above 30 µM. The IC50 in series [2] (setting [6]) is above 30 µM. In addition, in series [2], the “% of inhibition of Histamine release at the highest concentration” value came to 47.6 ± 2.4% and the “% of inhibition of β-Glucuronidase release at the highest concentration” value came out at 49.2 ± 2.0%. The IC50 in the series on rat neutrophils [3] (setting [7]) is 6.6 ± 0.4 µM. The IC50 in the series with rat neutrophils [3] (setting [8]) was determined as 6.2 ± 0.3 µM. In the series on rat neutrophils [4] (PMA (3 nM)), this molecule yielded an inhibition of 49.9%. The IC50 in the series with rat neutrophils [4] (setting [9]) is above 30 µM. Also, the IC50 with rat neutrophils [4] (setting [10]) turned out to be 17.7 ± 7.2 µM. Also, in the series with RAW 264.7 cells, the “% of inhibition of NO2− accumulation at the highest concentration, RAW 264.7 cells” value turned out to be 7.5 ± 0.4% and the IC50 is above 10 µM. For the same molecule, in the series with N9 cells, the “% of inhibition of NO2− accumulation at the highest concentration, N9 cells” value was determined as 26.4 ± 2.3% and the IC50 was above 30 µM.

The molecule `O=C(/C=C/c1cccs1)c1cccs1` [Compound 8, 2′,2-Dithienylchalcone] had a melting point of 95 to 97 °C. In addition, the IC50 in series [2] (setting [5]) was above 30 µM. The IC50 in series [2] (setting [6]) is above 30 µM. In series [2], the “% of inhibition of Histamine release at the highest concentration” value is listed as 20.9 ± 1.2% and the “% of inhibition of β-Glucuronidase release at the highest concentration” value amounted to 17.3 ± 2.6%. For the same molecule, the IC50 with rat neutrophils [3] (setting [7]) was above 30 µM. In the series with rat neutrophils [3] (setting [8]), the IC50 is above 30 µM. Moreover, in the series on rat neutrophils [3] (setting [11]), the “% of inhibition of Lysozyme release at the highest concentration” value came out at 30.0 ± 1.4% and the “% of inhibition of β-Glucuronidase release at the highest concentration” value was 46.6 ± 0.7%. The same molecule gave an inhibition with rat neutrophils [4] (PMA (3 nM)) of 35.6%. In addition, the IC50 with rat neutrophils [4] (setting [9]) was above 30 µM. Further, in the series on rat neutrophils [4] (setting [10]), the IC50 worked out at 24.3 ± 3.2 µM. In the series on RAW 264.7 cells, the “% of inhibition of NO2− accumulation at the highest concentration, RAW 264.7 cells” value came out at 12.5 ± 2.2% and the IC50 is above 30 µM. In the series with N9 cells, the “% of inhibition of NO2− accumulation at the highest concentration, N9 cells” value worked out at 15.2 ± 0.5% and the IC50 was above 30 µM.

The values are drawn from patent US20040176471A1, “Novel chalcone derivatives and pharmaceutical compositions comprising the same” (KAOHSIUNG MEDICAL UNIVERSITY, priority 2003, published 2004).
